Laboratory results as given in PMC8746798, “Evaluation of 2-Thioxoimadazolidin-4-one Derivatives as Potent Anti-Cancer Agents through Apoptosis Induction and Antioxidant Activation: In Vitro and In Vivo Approaches” (Molecules, 2021).
Entries after “also recorded” stand apart in the source; their conditions may differ.

Tests used:
HepG2 liver cancer cells = assay: MTT assay for cytotoxic screening, HepG2; format: cell-based, human; conditions: mean ± SE, n = 3
Description: The in vitro anti-cancer activity was assessed using the MTT assay. […] Staurosporine and 5-FU were used as reference drugs. HepG2 cells (1 × 10^4 cells/well, 96-well plate) were maintained in DMEM media supplemented with 2mML-glutamine (Lonza, Verviers, Belgium) and 10% FBS (Sigma, St. Louis, MO, USA), 1% Penicillin/Streptomycin (Lonza, Verviers, Belgium) according to the routine culture work. Cultures were incubated for 48 h with serial dilutions (0.01, 0.1, 1, 10, 100 µM) of the tested compounds. Finally, cell viability was determined by measuring the absorbance λ570 nm according to the following formula: % of cell viability = (A sapmple/A control) ×100, then IC50 calculation was calculated using GraphPad Prism 7 software.

[1] = system: Solid Ehrlich carcinoma (SEC); assay: In vivo anti-tumor assay: tumor volume and tumor inhibition ratio; conditions: SEC-bearing mice, 6 mg/kg; SEC control 5802 mm^3
Description: We used adult Swiss albino female mice with average body weight 18–23 g obtained from Theodor Bilharzia Research Institute in Giza, Egypt. Mice were kept under constant conditions of a 12 h light–dark cycle at temperatures below controlled moisture conditions (22 ± 2 °C) with standard laboratory mouse nutrition and water entries. Approval for the experimental protocol was provided from the ethical committee of Suez Canal University for this experimental protocol (approval number REC-06-2020, Faculty of Science, Suez Canal University). Mice were adapted for approximately 10 days before use in the experiment.
Solid Ehrlich carcinoma (SEC) was obtained from the National Cancer Institute (University of Cairo, Egypt). The tumor cell line proliferated in mice after serial implantation of the peritoneal cavity (I.P.) in 0.2 mL of physiological saline containing 1 × 10^6 viable cells for 24 h. […]
We measured the length and width of the tumor using a digital Vernier clipper (Tricle Brand, Shanghai, China), then we calculate the tumor volume using the formula: V = (L × W × W)/2, where V is tumor volume, W is tumor width, and L is tumor length, and calculated the tumor inhibition ratio% using the formula: TIR %= (C − T)/C × 100, where T represents mean tumor volume of treated group and C represents mean tumor volume of the control group.

[2] = system: THLE-2 normal liver cells; assay: MTT assay, normal liver cells; format: cell-based; conditions: n = 3
[3] = Histopathological examination of liver and kidney (H&E); format: in vivo, mice; conditions: SEC-bearing mice treated
Description: (§1) We randomly divided 50 mice into groups 5 groups (10 mice in each group): normal control (I) (mice injected intraperitoneally with the same volume of solvent for 14 consecutive days); group II, a group of normal mice treated with compound 4 (mice injected intraperitoneally with newly produced compound 4 at a dose of 6 mg/kg per day for 14 days); group III, solid tumor group (mice were implanted with solid tumor); group IV, group were treated with 5-FU (after 10 days of tumor implantation, mice were treated with 6 mg/kg only once); and group V, solid tumor group were treated with compound 4 (after 10 days of tumor implantation, mice were treated with 6 mg/kg only once). after one day of the previous treatment, 10 mice from each group were sacrificed and tumor weight, tumor volume (length and width of solid femoral tumor), blood and liver samples were obtained from each group. A portion of each blood sample taken was used for complete blood count (CBC) and the rest was centrifuged to obtain the serum. Serum was used for biochemical parameter estimation. The livers were rapidly dissected, washed with isotonic saline, and dried. The experiment design is summarized in Supplementary Figure S3.
(§2) Complete blood counts (CBCs) were counted using an AbbottCELLDYN®1800 Automated Hematology Analyzer (Abbott Park, IL, USA) equipped with an off-the-shelf kit (Abbott Laboratories, Abbott Park, IL, USA). For microscopic histopathological examination, tumor and kidney slices were maintained in 10% formalin, dehydrated with graduated alcohol, embedded in paraffin sections, H&E stained, and hematoxylin stained.
Specimens from mice liver cells were fixed in 10% formalin saline. Then, the samples were dehydrated with ascending series of ethanol and embedded in paraffin. A […] thick section was stained with hematoxylin and eosin and examined under a light microscope.

[4] = Hematological parameters (CBC) in mice; format: in vivo; conditions: SEC-bearing mice, 6 mg/Kg BW
Description: as §1, §2

[5] = Serum biochemical parameters in mice; format: in vivo; conditions: SEC-bearing mice, 6 mg/Kg BW
Description: as §1
Evaluation of the activities of aspartate aminotransferase (AST) and alanine aminotransferase (ALT) using a commercial kit (ELITech Clinical Systems, France). The serum albumin level was measured using a kit obtained from STANBIO Company (USA). A commercial kit from the BioDiagnostic Company (Cairo, Egypt) was used to evaluate creatinine and urea levels.

[6] = Homo sapiens, THLE-2, mean ± SE

CN[C@@H]1C[C@H]2O[C@@](C)([C@@H]1OC)n1c3ccccc3c3c4c(c5c6ccccc6n2c5c31)C(=O)NC4 [Staurosporine, reference compound]
IC50 (HepG2 liver cancer cells; Homo sapiens, HepG2, 48 h): 5.07 ± 0.22 µM

CC(C)C1(CN2CCCCC2)NC(=S)N(CN2CCCCC2)C1=O (stereo not drawn) [Compound 11, 5-Isopropyl-3,5-bis(piperidin-1-ylmethyl)-2-thioxoimidazolidin-4-one]
IC50 (HepG2 liver cancer cells; Homo sapiens, HepG2, 48 h): 1.14 ± 0.05 µM

O=c1[nH]cc(F)c(=O)[nH]1 [Compound 5-FU, reference compound]
tumor volume on the final day [1]: 4177 mm^3 | IC50 ([2]; mean ± SE): 43 ± 1.29 µM | IC50 (HepG2 liver cancer cells; 48 h): 5.18 ± 0.53 µM | kidney histopathology [3]: moderate improvement; also recorded: few tubules show evidence of renal acute tubular injury ATI | liver histopathology [3]: Hydropic degeneration of hepatocytes, nuclear pyknosis, and karyolysis still occurred | RBC’s count ([4]; SEC control 7.52 ± 0.5): 7.5 ± 0.8 ×10^6/µL | Hemoglobin ([4]; SEC control 11.8 ± 0.8, mean ± SE n = 9): 10.6 ± 1.1 g/dL | WBC’s count ([4]; SEC control 16.5 ± 3.4): 13.1 ± 4.1 ×10^3/µL | Creatinine [5]: 0.8 ± 0.1 mg/dL | Albumin ([5]; SEC control 4.01 ± 0.4): 4.1 ± 0.3 g/dL | Total Protein ([5]; SEC control 6.6 ± 0.4): 7.2 ± 0.4 g/dL | Urea ([5]; SEC control 25.2 ± 2.3): 26.1 ± 2.7 mg/dL | AST ([5]; SEC control 48.9 ± 5.5): 38 ± 4.6 U/L | ALT ([5]; SEC control 50 ± 2.7): 39.1 ± 3.6 U/L

O=C1NC(=S)N(c2ccccc2)/C1=C/c1cc2ccccc2[nH]1 [Compound 2, (E)-5-((1H-Indol-2-yl)methylene)-1-phenyl-2-thioxoimidazolidin-4-one]
IC50 [2, 6]: 16.9 ± 1.11 µM | IC50 (HepG2 liver cancer cells; Homo sapiens, HepG2, 48 h): 0.18 ± 0.03 µM

CC(C)C1NC(=S)N(CN2CCOCC2)C1=O (stereo not drawn) [Compound 10, 5-Isopropyl-3-(morpholinomethyl)-2-thioxoimidazolidin-4-one]
IC50 (HepG2 liver cancer cells; Homo sapiens, HepG2, 48 h): 64.8 ± 1.63 µM

CN1C(=S)N(CCN2CCOCC2)C(=O)/C1=C\c1ccc2c(c1)OCO2 [Compound 5, (E)-5-(3,4-Methylenedioxybenzylidene)-3-[2-(4-morpholino)ethyl]-1-methyl-2-thioxo-imidazolidin-4-one]
IC50 (HepG2 liver cancer cells; Homo sapiens, HepG2, 48 h): 1.94 ± 0.09 µM

COc1ccc(/C=C2\C(=O)NC(=S)N2c2ccccc2)cc1 [Compound 1, (E)-5-(4-Methoxybenzylidene)-1-phenyl-2-thioxoimidazolidin-4-one]
IC50 (HepG2 liver cancer cells; Homo sapiens, HepG2, 48 h): 27.8 ± 0.94 µM

O=C1/C(=C\c2cccs2)NC(=S)N1c1ccccc1 [Compound 7, (E)-3-Phenyl-5-(thiophen-2-ylmethylene)-2-thioxoimidazolidin-4-one]
IC50 [2, 6]: 15.4 ± 0.74 µM | IC50 (HepG2 liver cancer cells; Homo sapiens, HepG2, 48 h): 0.41 ± 0.009 µM

CC(C)CC1(CN2CCOCC2)NC(=S)N(CN2CCOCC2)C1=O (stereo not drawn) [Compound 12, 5-Isobutyl-3,5-bis(morpholinomethyl)-2-thioxoimidazolidin-4-one]
IC50 (HepG2 liver cancer cells; Homo sapiens, HepG2, 48 h): 1.13 ± 0.066 µM

C=CCN1C(=O)/C(=C\c2ccc(C)cc2)NC1=S [Compound 6, (E)-3-Allyl-5-(4-methylbenzylidene)-2-thioxoimidazolidin-4-one]
IC50 [2, 6]: 35.1 ± 1.33 µM | IC50 (HepG2 liver cancer cells; Homo sapiens, HepG2, 48 h): 0.61 ± 0.08 µM

CN1C(=S)NC(=O)/C1=C\c1ccc(N(C)C)cc1 [Compound 3, (E)-5-(4-(Dimethylamino)benzylidene)-1-methyl-2-thioxoimidazolidin-4-one]
IC50 (HepG2 liver cancer cells; Homo sapiens, HepG2, 48 h): 8.93 ± 0.75 µM
